Reference: patent US9534008B2, “Small molecule compounds that control plant- and insect-pathogenic nematodes” (California Institute of Technology, priority 2011, dated 2017)
Entries after “also recorded” stand apart in the source; their conditions may differ.

Legend:
[1] = system: males; assay: Bioassay of HPLC-purified peak; assay type: in vivo; settings: purified peak with retention time of 9.7 minutes
Description: A Thermo Finnigan LCQ Deca XP Max was used with electrospray ionization in positive ion mode in the 50-1000 AMU range. The Thermo Separation spectra HPLC system consisted of a P4000 quaternary pump, an AS 3000 auto sampler, and a UV 6000 diode array detector. The solvents were water with (a) 0.1% formic acid and (b) 90% acetonitrile-10% water with 10 mM ammonium formate. The column temperature was maintained at 60° C. and a solvent flow of 1.0 ml/min. The reversed phase column (PLRP-S Polymeric reversed phase column, 250×4.6 mmid, Varian Inc.) was eluted with a solvent composition starting with 90:10 (a,b) for 2 minutes, followed by a gradient to 5:95 in 20 minutes and an additional 5 minutes at 5:95. Ultraviolet absorption was monitored at 190 and 400 nm. Solvent flow between the ultraviolet detector and mass spectroscopy electrospray interface split 9:1 with a low-volume micro needle P450 splitter valve (Upchurch Scientific, Oak Harbor, Wash.), making it possible to obtain spectra of eluted compounds and simultaneously collect 90% of the injected material for bioassay. […] This was confirmed to be ascr#1 using NMR analysis.

[2] = system: several of the tested nematode species; assay: Retention assay, across species; assay type: in vivo; settings: 1 nM, 1 μM and 1 mM tested
Description: OP50 E. coli was grown on a standard 5 cm agar plate (made with standard Nematode Growth Medium). The bacterial lawn was 16 mm in diameter and was grown overnight at 20° C. before being used in trials. Two 4 mm spots (0.6 μL) were placed on opposite sides of the bacterial lawn (using a transparent template to guide spot placement), and several minutes elapsed for the liquid to settle in before placing nematodes down on the assay. Recording began immediately upon worm placement. 0.6 μL of the control was placed on one side of the lawn, and 0.6 μL of the experimental cue was placed on the other side of the lawn, changing the location of the cue throughout trials between left/right and top/bottom to avoid bias.
Nematodes were isolated by gender at the L4 stage the day before being used in trials as developed adults. Worms were evenly divided and placed at two points equidistant from the foci of the scoring region. Trials were recorded for 20 minutes, and frames were collected for analysis at 1 frame per second. Results were averaged from at least three different trials. For every nematode species in this study, a different total number of worms (using water in both scoring regions) was tested to determine the minimum number of worms necessary for consistent unbiased results over a 20 minute trial. The total number of worms used in the multiple species assays depended on that species' optimal parameters. 10 worms were used for P. redivivus males and females, 20 worms were used for C. elegans males and O. dolichuridae males, and 14 worms were used for S. glaseri males. The Automated Software was used to compare worm occupancy in each scoring region over time, and the Chemotaxis Index (Bargmann et al., Cell 74:515-27 (1993), which is hereby incorporated by reference in its entirety) was adapted to score preference or avoidance to each ascaroside.
A video camera attached to the microscope produced a digital video stream, which was then analyzed. The ratio of the time the average worm spent in each region of interest was calculated for every trial. For ease of implementation, all worms in a single experiment were assumed to be roughly the same size. Thus worm pixels were counted instead of whole worms, allowing fractions of a worm in the region of interest to be taken into account. It also eliminated the need for a shape-based worm identification algorithm, and allowed each frame to be analyzed independently. A band-pass filter was applied to each frame to eliminate the effect of uneven lighting and also accentuate the worms against the background. The worm was then identified after thresholding the filtered image. Throughout each experiment, the locations and sizes of the regions of interest were known. Through the filtering described above, it is known which pixels are occupied by worms and which ones are not. Thus, the ratio of worm-pixels to all pixels inside the region of interest can be calculated to produce the worm-occupancy ratio. This calculation was done for every frame, giving a plot output of worm-occupancy ratio vs. time for each region.

[3] = system: Panagrellus redivivus; assay: Ascaroside function (Table 12), Panagrellus redivivus; assay type: in vivo
Description: (§1) Various ascarosides and ascaroside blends were administered to various nematodes described below (Table 12). […] A very strong result of affecting nematode behavior is designated in the table as “strong.”

[4] = system: C. elegans; assay: Ascaroside function (Table 12), C. elegans; assay type: in vivo, Caenorhabditis elegans; design: key to Attract Females/Herm. / Promote Dauer Formation / Attract Males: A very strong result of affecting nematode behavior is designated in the table as “strong.”
Description: as §1

[5] = system: S. glaseri; assay: Ascaroside function (Table 12), S. glaseri; assay type: in vivo
Description: as §1

[6] = system: C. elegans hermaphrodites; assay: Measurement of locomotory parameters (automated worm-tracking system); assay type: in vivo
Description: Reversal frequency and velocity were measured using an automated worm-tracking system (Pungaliya et al., PNAS 106:7708-13 (2009); Srinivasan et al., Nature 454:1115-18 (2008), which are hereby incorporated by reference in their entirety).

[7] = system: ASK neurons; assay: Calcium imaging (G-CaMP), ASK; assay type: in vivo, C. elegans; settings: 1 pM to 1 μM
Excerpt: (§2) Transgenic lines that express the genetically encoded Ca^2+ sensor in ASK (kyEx2866) and AIA (kyEx2916) (Macosko et al., Nature 458:1171-75 (2009), which is hereby incorporated by reference in its entirety) were used for calcium imaging. Young adults or adult worms were inserted into an “Olfactory chip” microfluidic device (Chronis et al., Nat. Methods 4:727-31 (2007), which is hereby incorporated by reference in its entirety). Dilutions of icas#3 were done with S-basal buffer (with no cholesterol). As stock solutions of icas#3 contained small amounts of ethanol, equivalent amounts of ethanol were added to the S-basal control flow.
(§3) Imaging was conducted using an inverted Zeiss microscope equipped with an Andor camera. Exposure time for image acquisition was 300 milliseconds. Before imaging the ASK neuron, the worm was exposed to blue light for 3 minutes as ASK responds to the blue light itself. […] Movies were analyzed using custom-made Matlab scripts. The first peak of fluorescence immediately after exposure to buffer or icas#3 was chosen for calculating the average change in fluorescence upon exposure to either buffer or icas#3. The value for this maximum was then subtracted from the mean fluorescence during the 5 seconds before the delivery of icas#3/buffer (corresponding to the region between 5 to 10 seconds in FIG. 2D).

[8] = system: AIA interneurons; assay: Calcium imaging (G-CaMP), AIA; assay type: in vivo, C. elegans; settings: 1 μM icas#3
Excerpt: as §2, §3

[9] = system: C. elegans hermaphrodites; assay: Quadrant chemotaxis assay; assay type: in vivo
Description: Chemotaxis to both non-indole and indole ascarosides was assessed on 10 cm four-quadrant petri plates (Wicks et al., Dev. Biol. 221:295-307 (2000), which is hereby incorporated by reference in its entirety). Each quadrant was separated from adjacent ones by plastic spacers (FIG. 1B). Pairs of opposite quadrants were filled with nematode growth medium (NGM) agar containing either indole ascarosides or non-indole ascarosides at different concentrations. Animals were washed gently in a S-basal buffer, placed in the center of a four-quadrant plate with ascarosides in alternating quadrants, and scored after 15 minutes and 30 minutes. A chemotaxis index was calculated as: (the number of animals on ascaroside quadrants minus the number of animals on buffer quadrants)/(total number of animals).
Chemotaxis to hbas#3 was assessed on 10 cm four-quadrant petri plates (Wicks et al., Dev. Biol. 221:295-307 (2000), which is hereby incorporated by reference in its entirety). Each quadrant was separated from adjacent ones by plastic spacers. Pairs of opposite quadrants were filled with nematode growth medium (NGM) agar containing different concentrations of hbas#3. Animals were washed gently in an S-basal buffer and placed in the center of a four-quadrant plate with ascarosides in alternating quadrants, and scored after 15 minutes and 30 minutes. A chemotaxis index was calculated as: (the number of animals on ascaroside quadrants minus the number of animals on buffer quadrants)/(total number of animals).

[10] = system: C. elegans hermaphrodites and males; assay: Spot attraction assay; assay type: in vivo
Description: The spot attraction assays were conducted according to a previously reported method (Pungaliya et al., PNAS 106:7708-13 (2009); Srinivasan et al., Nature 454:1115-18 (2008), which are hereby incorporated by reference in their entirety). For both C. elegans hermaphrodites and males, 50-60 worms were harvested daily at the fourth larval stage (L4) and stored segregatedly by sex at 20° C. overnight, to be used as young adults the following day. For the competition experiments, two conditions were used: 120 nM ascr#3 and 10 nM icas#3 (Condition 1), or 12 μM ascr#3 and 1 μM icas#3 (Condition 2) in water containing 10% ethanol. Aliquots were stored at −20° C. in 20 μL tubes. 10% ethanol in water was used as control.
Attraction assays with hbas#3 were conducted as previously reported (Srinivasan et al., Nature 454:1115-18 (2008); Pungaliya et al., Proc. Natl. Acad. Sci. U.S.A. 106:7708-13 (2009), which are hereby incorporated by reference in their entirety). For the attraction assays, 50-60 hermaphrodite worms were harvested daily at the early fourth larval stage (L4) and stored at 20° C. overnight to be used as young adults the following day. Hbas#3 was dissolved in water containing 10% ethanol. Aliquots were stored at −20° C. in 20 μL tubes. 10% ethanol in water was used as control.

[11] = system: C. elegans; assay: Aggregation assay; assay type: in vivo
Description: Aggregation behavior of worms was measured using assays reported in de Bono & Bargmann, Cell 94:679-89 (1998), which is hereby incorporated by reference in its entirety. Aggregation assays were conducted on standard NGM plates. Plates containing indole ascarosides were made by adding the indole ascaroside stock solution to the NGM media before they were poured onto the plates. These plates were dried at room temperature for 2 to 3 days. Control plates were treated similarly, except that ethanol solutions instead of icas solutions were added to the plates, corresponding to the amount of ethanol introduced via the icas solutions. Final ethanol concentrations of the plates were below 0.1% for all conditions. After drying, both control plates and plates containing indole ascarosides were seeded with 150 μl of an overnight culture of E. coli OP50 using a micropipette, and were allowed to dry for 2 days at room temperature. For “low worm density” experiments, 20 worms were placed onto the lawn and left at 20° C. for 3 hours. For “high worm density” experiments, approximately 120 worms were placed onto the bacterial lawn and left at 20° C. for 3 hours. Aggregation behavior was quantified as the number of animals that were in touch with two or more animals at greater than 50% of their body length.

What does the source list for `C[C@H](CCCCC(=O)O)O[C@@H]1O[C@@H](C)[C@H](O)C[C@H]1O` [ascr#1]?
activity to males in the bioassay [1]: active; preference for areas conditioned by ascaroside [2]: preferred; Attract Males [3]: ascr#1; Attract Males [4]: ascr#1; Promote Dauer Formation [4]: ascr#1; Attract Males [5]: ascr#1

With `C[C@H](CCCC/C=C/C(=O)O)O[C@@H]1O[C@@H](C)[C@H](OC(=O)c2c[nH]c3ccccc23)C[C@H]1O` [icas#3] as the compound, how does the worm velocity ([6]; 1-10 pM icas#3) read?
The worm velocity was “not significantly reduced”.

What about the mean stopped duration ([6]; aggregation-inducing concentrations, N2 hermaphrodites) of the same compound?
Its mean stopped duration is “strongly increase”.

And the “forward velocity of ASK-ablated hermaphrodites” value ([6]; in vivo)?
Its value is “do not display reduced forward velocity”.

What about the “reversal frequency of ASK-ablated hermaphrodites” value ([6]; in vivo) of the same compound?
The value was “does not increase; also recorded: neither increased reversal frequency”.

What about the “Ca2+ transients in ASK neurons” value [7] of the same compound?
The value was “no detection”.

What about the “G-CaMP fluorescence in AIA interneurons” value [8] of the same compound?
Its value is “induces G-CaMP fluorescence signals; also recorded: significantly increased; also recorded: significant changes”.

And the “Attract Females/Herm.” value [4]?
The value was “([strong])”.

What about the “Attract Males” value [4] of the same compound?
The value was “([strong])”.

What about the “chemotaxis of hermaphrodites from all tested strains” value ([9]; 1 pM icas#3, after 15 minutes) of the same compound?
The value was “attracted”.

And the “chemotaxis of hermaphrodites from all tested strains” value ([9]; 1 μM icas#3, after 30 minutes)?
Its value is “attracted”.

And the “attraction of social wild-type (RC301, CB4856) and npr-1(ad609) hermaphrodites” value ([9]; in vivo)?
Its value is “strongly attracted”.

And the “response of daf-22 hermaphrodites” value ([9]; in vivo)?
The value was “as strongly as N2 worms”.

What about the “concentration resulting in strong attraction of hermaphrodites (as low as)” value ([9]; presence and absence of food) of the same compound?
The value was no more than 1 pM.

And the “attraction after ablation of the RMG interneuron” value ([10]; N2 (wild-type) and ncs-1::gfp hermaphrodites)?
The value was “does not affect; also recorded: did not affect”.

What about the “attraction after ablation of ASK sensory neurons” value ([10]; hermaphrodites) of the same compound?
Its value is “near complete loss of attraction”.

What about the “attraction of both C. elegans sexes” value ([10]; high concentrations, 1 μmol, N2 hermaphrodites and him-5 males) of the same compound?
The value was “attractive; also recorded: attracted”.

And the “attraction of AIA-deficient worms” value ([10]; in vivo)?
The value was “did not show any attraction”.

And the “attraction of daf-22 hermaphrodites” value ([10]; in vivo)?
The value was “attracted; also recorded: as strongly as N2 worms”.

And the “attraction of social wild-type (RC301, CB4856) and npr-1(ad609) hermaphrodites” value ([10]; in vivo)?
The value was “attracted; also recorded: strongly attracted”.

What about the attraction of hermaphrodites ([10]; low concentrations, N2 hermaphrodites) of the same compound?
The attraction of hermaphrodites was “strongly attractive”.

And the “aggregation of daf-22 hermaphrodites versus N2” value ([11]; 1 pM icas#3, low worm density)?
Its value is “less aggregation than N2 worms”.

And the “aggregation of CB4856” value ([11]; 1 nM icas#3, low worm density)?
The value was “not significantly different from the control”.

And the “aggregation of npr-1(ad609) hermaphrodites” value ([11]; entire tested concentration range, without drop off, low worm density)?
Its value is “increased aggregation”.

What about the “active concentration window (hermaphrodite attraction and aggregation)” value ([11]; in vivo) of the same compound?
Its value is “fM-pM; also recorded: femtomolar to low picomolar”.

And the “concentration giving very strong increase in aggregation (as low as)” value ([11]; low worm density (20 worms per plate), solitary and social hermaphrodites)?
Its value is no more than 10 fM.

What about the “aggregation of ASK-ablated hermaphrodites” value ([11]; low worm density, any of the tested concentrations) of the same compound?
The value was “do not aggregate; also recorded: did not aggregate”.

And the “concentration of maximal aggregation, social strain CB4856” value ([11]; low worm density, bell-shaped response curve)?
The value was 1 pM.

And the “aggregation of him-5 males” value ([11]; plates containing 100 fM or 100 pM of icas#3)?
The value was “significantly increased”.
